Results published in article PMC10058583, “Development of Novel Fluorinated Polyphenols as Selective Inhibitors of DYRK1A/B Kinase for Treatment of Neuroinflammatory Diseases including Parkinson’s Disease” (Pharmaceuticals, 2023).

Legend:
[1] = target: T1, human DYRK1B isoform p65 (GST fusion) (Homo sapiens, UniProt Q9Y463); experiment: ELISA-based non-radioactive kinase assay, DYRK1B; format: biochemical; details: 30 ng GST-DYRK1B, 60 min reaction
T1 construct: made in house
Protocol: (§1) DYRK1B was prepared from human DYRK1B isoform p65 as glutathione S-transferase fusion protein, and DYRK2 was prepared from human DYRK2 isoform 1 as 6xHis-tagged protein, as previously described.
(§2) For DYRK2, the reactions were performed exactly as described for DYRK1A. For DYRK1B, the assays were similarly conducted but with 30 ng GST-DYRK1B and a kinase reaction time of 60 min.

[2] = target: T2, human DYRK2 isoform 1 (6xHis-tagged) (Homo sapiens, UniProt Q92630); experiment: ELISA-based non-radioactive kinase assay, DYRK2; format: biochemical
T2 sequence (Q92630 74-601 limits assumed): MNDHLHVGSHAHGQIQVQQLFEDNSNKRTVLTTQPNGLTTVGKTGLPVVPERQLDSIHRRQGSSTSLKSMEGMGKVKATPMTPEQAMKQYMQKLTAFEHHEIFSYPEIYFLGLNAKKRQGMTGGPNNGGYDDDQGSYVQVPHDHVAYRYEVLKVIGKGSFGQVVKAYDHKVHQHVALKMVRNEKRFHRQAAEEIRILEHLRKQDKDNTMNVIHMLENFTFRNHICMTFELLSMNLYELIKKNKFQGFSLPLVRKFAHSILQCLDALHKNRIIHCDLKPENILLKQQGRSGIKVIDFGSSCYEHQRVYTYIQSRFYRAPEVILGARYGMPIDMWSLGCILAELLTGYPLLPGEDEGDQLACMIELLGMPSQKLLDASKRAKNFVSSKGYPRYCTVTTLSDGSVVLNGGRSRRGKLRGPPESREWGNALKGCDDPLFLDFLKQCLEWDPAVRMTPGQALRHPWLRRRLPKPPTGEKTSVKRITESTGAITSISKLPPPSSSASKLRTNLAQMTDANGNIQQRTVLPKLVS
Protocol: as §1, §2

[3] = target: DYRK1A (Rattus norvegicus, UniProt Q63470); experiment: ATP competition assay on DYRK1A; format: biochemical; details: ATP up to 0.8 mM
[4] = test system: MPTP-treated C57BL/6J mice; experiment: MPTP model for Parkinson's disease; format: in vivo, mouse
Protocol: We tested the behavioral effect of 1c in the MPTP model for PD using both IN and PO delivery (both 25 mg/kg, BID). This is a common neurodegenerative disorder model characterized by a progressive loss of dopaminergic (DA) neurons in the […]. Several studies have shown that oxidative stress, neuroinflammation, and microglial activation play a pivotal role, at least in the progression of PD [35].
MPTP dissolved in saline was administered via intraperitoneal injections once daily at a dosage of 30 mg/kg/day for 5 consecutive days. The control group was administered intraperitoneal injections of saline.
The behavioral tests were performed at initiation as the baseline and 3, 6, and 9 days following the last MPTP injection. Pole test: the test consisted of a gauze-taped pole (45 cm high, 1 cm in diameter) with a small cork ball at the top. Mice were placed with their head facing upwards immediately below the ball. Two times were recorded: the time it took for the mouse to turn completely downward (T-turn) and the time it took to descend to the floor (T-total), with a cutoff limit of 60 sec. The test consisted of two trials separated by 10 min intertrial intervals, and the average time was calculated. Mice were pretrained for 3 days before MPTP injection. The rotarod test was used to assess the motor coordination and balance of animals. On the test day, the mice were habituated for 30 min in the test room before testing. The drum was slowly accelerated to a speed of 4–40 rpm for a maximum of 300 s. The latency to fall off the rotarod within this time period was recorded. The test consisted of three trials separated by 10 min intertrial intervals. The mean latency to fall off the rotarod was recorded and used for analysis. Mice were trained for 3 days before MPTP injection.
Tissue Collection and IHC Analysis: within 2 h following the last dose, the blood of animals was collected via cardiac puncture under isoflurane-induced anesthesia. After blood collection, animals were transcardially perfused with normal saline, followed by buffered formalin fixative. Brains were removed, post-fixed, and embedded in paraffin for subsequent IHC analysis of […] (TH)-positive cells in the substantia nigra (SN).

[5] = IN or PO 25 mg/kg BID, no difference between the two routes

T1 sequence (Q9Y463 1-589 isoform Q9Y463-2): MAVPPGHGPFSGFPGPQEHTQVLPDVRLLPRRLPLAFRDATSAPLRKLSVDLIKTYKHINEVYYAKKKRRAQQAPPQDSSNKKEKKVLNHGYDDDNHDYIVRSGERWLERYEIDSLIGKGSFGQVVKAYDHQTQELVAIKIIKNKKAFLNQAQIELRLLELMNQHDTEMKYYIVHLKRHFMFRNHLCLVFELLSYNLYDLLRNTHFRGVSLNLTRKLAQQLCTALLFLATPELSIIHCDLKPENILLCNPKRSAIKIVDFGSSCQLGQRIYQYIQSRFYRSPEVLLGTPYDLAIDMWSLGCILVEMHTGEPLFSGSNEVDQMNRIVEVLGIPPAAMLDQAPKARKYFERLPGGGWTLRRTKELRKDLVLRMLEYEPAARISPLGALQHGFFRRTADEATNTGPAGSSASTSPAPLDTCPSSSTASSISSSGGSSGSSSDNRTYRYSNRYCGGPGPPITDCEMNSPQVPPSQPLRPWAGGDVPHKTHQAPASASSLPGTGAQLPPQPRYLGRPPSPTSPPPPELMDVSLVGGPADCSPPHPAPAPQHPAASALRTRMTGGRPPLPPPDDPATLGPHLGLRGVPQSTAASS

IC50 [1]: 79 nM
IC50 [2]: 331 nM
mode of inhibition with varying ATP [3]: non-ATP-competitive inhibitor
SMILES: COc1cc(C(=O)O[C@@H]2Cc3c(O)cc(O)cc3O[C@H]2c2cc(O)c(O)c(O)c2)c(F)c(O)c1O [Compound 1c]
tyrosine-hydroxylase-positive cells in the substantia nigra pars compacta ([4]; IN 25 mg/kg BID): failed to show any histological difference
movement behavior, pole test [4, 5]: completely restored
movement behavior, rotarod test [4, 5]: completely restored
tyrosine-hydroxylase-positive cells in the substantia nigra pars compacta ([4]; PO 25 mg/kg BID): protected from MPTP toxicity
